Reference: patent publication US20070264212A1, “Skin Lightening Method” (priority 2004, published 2007)
“Also recorded” adds a separate entry of the source.

Experiments:
Assay type in all cases: in vivo, human
[1] = tested on: skin tone of test subject having a natural skin tone of Fitzpatrick type IV; test: Skin tone lightening by oral and topical MSM in combination with an exfoliate; details: oral and topical MSM plus exfoliate (e.g. twice-weekly 30% lactic or glycolic acid rinse)
From the text: Referring again to FIG. 1, at step 104, a skin lightening effect may be enhanced by application of an exfoliant during the MSM treatment period. The exfoliant is believed to cause more darkly pigmented cells that formed during a pre-treatment period to be more rapidly shed. […] For example, the treatment regimen described in the second row of Table III may be combined with a twice-weekly rinse in an exfoliate solution. A suitable exfoliate solution may comprise, for example, a 30% solution of lactic or glycolic acid. A lactic acid solution may be more suitable for an individual with sensitive skin. In a test using an exfoliate in combination with oral and topical application, the test subject having a natural skin tone of Fitzpatrick type IV achieved and maintained a class III tone overall, with class II tone in constitutive skin areas.

[2] = tested on: skin tone of adult test subject, skin type IV (moderate brown), Fitzpatrick classification; test: Skin tone lightening by oral MSM supplement taken twice daily (Table I); details: 3 months
Procedure: A first procedure for performing step 102 is described in Table I below, at various dosage levels and application periods. The application periods indicated in the table were carried out in immediately successive periods on the same individual. Exemplary results are also shown in Table I, for an adult test subject of approximately 45 kg weight having a skin type IV (moderate brown) according to the Fitzpatrick skin type classification. […] Because of variation between individuals, the effective amount of MSM that should be delivered to cause a noticeable change in skin tone may vary somewhat. For example, dosage should be calculated based on body weight. Based on the disclosure herein, one of ordinary skill should be able to determine an effective dosage regimen without undue experimentation. […] For the tested individual, the optimal dose for maximum skin lightening appears to be between 2000 and 4000 mg (45 to 90 mg/kg) daily.

[3] = tested on: skin tone of adult test subject, skin type IV (moderate brown), Fitzpatrick classification; test: Skin tone lightening by oral MSM plus topical application of MSM in water solution (Table II); details: once daily, 3 months
Procedure: In an alternative embodiment, step 102 may be performed by oral delivery of MSM in combination with a topical application. […] Exemplary results are also shown in […], for the same test subject reported in Table I. Each row of the table indicates result for a procedure that was performed during one of successive 3-month periods. For each procedure described in Table II, MSM delivered was in an effective amount for the reported test subject. Again, some variation in effective amount should be expected between individuals. For the procedures described in Table II, a topical application may be prepared by dissolving the indicated amount of MSM in water to provide an approximately 15% by weight solution. For example, one tablespoon of MSM may be dissolved in 8 to 10 tablespoons of warm water to prepare the solution indicated in the first row. Then, the solution may be applied to the skin, which may be kept moistened with the solution for a period of approximately ten minutes or longer. The solution may be applied cover the entire body, or only in areas where greater lightening of skin tone is desired. The indicated application may be performed once daily for approximately a three-month period. […] Suitable formulations for transdermal patches to deliver MSM should be readily ascertained by one of ordinary skill.

[4] = oral MSM 2000 mg twice daily (4000 mg daily), successive period, same subject

SMILES: CS(C)(=O)=O [MSM, methyl sulfonyl methane]
- Skin tone achieved and maintained, constitutive skin areas [1]: class II
- Skin tone achieved and maintained, overall [1]: class III
- Results (observed skin tone) ([2]; oral MSM 100 mg twice daily (200 mg daily), adult person ~45 kg, skin type IV): No Change
- Results (observed skin tone) ([2]; oral MSM 250 mg twice daily (500 mg daily), successive period, same subject): No Change
- Results (observed skin tone) ([2]; oral MSM 500 mg twice daily (1000 mg daily), successive period, same subject): No Change
- Results (observed skin tone), constitutive skin such as under the arms, inner thighs, chests and nipples ([2]; oral MSM 1000 mg twice daily (2000 mg daily), successive period, same subject): Light Brown (skin type III)
- Results (observed skin tone), constitutive skin [2, 4]: Olive (skin type II) observed in
- Results (observed skin tone), facultative skin such as the neck, face, forearms [2, 4]: Light Brown (skin type III)
- Results, freckles on face [2, 4]: Freckles on face also lightened
- Results (observed skin tone) ([2]; oral MSM 3000 mg twice daily (6000 mg daily), successive period, same subject): did not cause noticeable lightening relative to the 4000 mg regimen; also recorded: Same results as 4000 mg per day
- Results (observed skin tone), total body complexion ([3]; oral 2000 mg twice daily (4000 mg daily) + topical 1 Tablespoon (10,000 mg) MSM in water, approx. 15% solution): Light olive (skin type III)
- Results (observed skin tone), elsewhere than constitutive skin ([3]; oral 2000 mg twice daily (4000 mg daily) + topical 2 Tablespoons (20,000 mg) MSM in water): light olive; elsewhere light olive
